Assay results published in patent US11590139B2, “Substituted aminopurine compounds, compositions thereof, and methods of treatment therewith” (Signal Pharmaceuticals, LLC, priority 2014, dated 2023).

tested on: Lox-IMVI melanoma cell line; assay: Lox-IMVI anti-proliferative assay (growth inhibition, Cell Titer-Glo); type: cell-based, human; conditions: Homo sapiens; IC50 activity level in the cell-based Lox-IMVI anti-proliferative assay; read-out: Activity
Method in brief: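 Luminescence from cellular ATP measured viability at compound addition and again after 72 h of exposure (37 °C, 5% CO2, RPMI + 10% FBS). Doses spanned 0.5 nM to 10 μM in ten 3-fold steps with 0.2% DMSO. Values were fitted as % of DMSO-treated cells by sigmoidal dose-response.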

Question: Which IC50 does the source give for `NC(=O)[C@H]1CC[C@@H](n2c(Nc3c(F)cccc3F)nc3cnc(N[C@H]4CCOC[C@H]4F)nc32)CC1` [Example 305, (1R,4s)-4-(8-(2,6-difluorophenylamino)-2-((3S,4S)-3-fluorotetrahydro-2H-pyran-4-ylamino)-9H-purin-9-yl)cyclohexanecarboxamide] here?
Answer: 500 to 1000 nM

Question: How did the IC50 turn out when `NC(=O)[C@H]1CC[C@@H](n2c(Nc3c(F)cc(F)cc3F)nc3cnc(N[C@H]4CCOC[C@H]4F)nc32)CC1` [Example 306, (1R,4s)-4-(2-((3S,4S)-3-fluorotetrahydro-2H-pyran-4-ylamino)-8-(2,4,6-trifluorophenylamino)-9H-purin-9-yl)cyclohexanecarboxamide] was run?
Answer: 250 to 500 nM

Question: How did the IC50 turn out when `NC(=O)[C@H]1CC[C@@H](n2c(Nc3c(F)cc(F)cc3F)nc3cnc(N[C@@H]4CCOC[C@@H]4F)nc32)CC1` [Example 307, (1S,4s)-4-(2-((3R,4R)-3-fluorotetrahydro-2H-pyran-4-ylamino)-8-(2,4,6-trifluorophenylamino)-9H-purin-9-yl)cyclohexanecarboxamide] was run?
Answer: > 1000 nM

Question: Which IC50 does the source give for `N#Cc1cc(F)c(Nc2nc3cnc(NC4CCOCC4)nc3n2[C@H]2CC[C@@H](C(N)=O)CC2)c(Cl)c1` [Example 308, (1s,4s)-4-(8-(2-chloro-4-cyano-6-fluorophenylamino)-2-(tetrahydro-2H-pyran-4-ylamino)-9H-purin-9-yl)cyclohexanecarboxamide] here?
Answer: < 250 nM

Question: With `N#Cc1cc(F)c(Nc2nc3cnc(NC4CCOCC4)nc3n2[C@H]2CC[C@@H](C(N)=O)CC2)c(F)c1` [Example 309, (1s,4s)-4-(8-(4-cyano-2,6-difluorophenylamino)-2-(tetrahydro-2H-pyran-4-ylamino)-9H-purin-9-yl)cyclohexanecarboxamide] as the molecule, how does the IC50 read?
Answer: < 250 nM

Question: How did the IC50 turn out when `NC(=O)[C@H]1CC[C@@H](n2c(Nc3ccc(Cl)c(F)c3F)nc3cnc(N[C@H]4C[C@@H](O)C4)nc32)CC1` [Example 310, (1s,4s)-4-(8-(4-chloro-2,3-difluorophenylamino)-2-((1s,3s)-3-hydroxycyclobutylamino)-9H-purin-9-yl)cyclohexanecarboxamide] was run?
Answer: > 1000 nM

Question: For `NC(=O)[C@H]1CC[C@@H](n2c(Nc3c(F)cc(F)cc3F)nc3cnc(N[C@H]4COC[C@@H]4O)nc32)CC1` [Example 311, (1R,4s)-4-(2-((3S,4R)-4-hydroxytetrahydrofuran-3-ylamino)-8-(2,4,6-trifluorophenylamino)-9H-purin-9-yl)cyclohexanecarboxamide], which IC50 is on record?
Answer: > 1000 nM

Question: For `NC(=O)[C@H]1CC[C@@H](n2c(Nc3c(F)cc(F)cc3Cl)nc3cnc(N[C@H]4COC[C@@H]4O)nc32)CC1` [Example 312, (1R,4s)-4-(8-(2-chloro-4,6-difluorophenylamino)-2-((3S,4R)-4-hydroxytetrahydrofuran-3-ylamino)-9H-purin-9-yl)cyclohexanecarboxamide], which IC50 is on record?
Answer: > 1000 nM

Question: How did the IC50 turn out when `NC(=O)[C@H]1CC[C@@H](n2c(Nc3c(Cl)cc(Cl)cc3Cl)nc3cnc(N[C@H]4COC[C@@H]4O)nc32)CC1` [Example 313, (1R,4s)-4-(2-((3S,4R)-4-hydroxytetrahydrofuran-3-ylamino)-8-(2,4,6-trichlorophenylamino)-9H-purin-9-yl)cyclohexanecarboxamide] was run?
Answer: 500 to 1000 nM

Question: `NC(=O)[C@H]1CC[C@@H](n2c(Nc3c(F)cc(Cl)cc3Cl)nc3cnc(N[C@@H]4COC[C@H]4O)nc32)CC1` [Example 314, (1S,4s)-4-(8-(2,4-dichloro-6-fluorophenylamino)-2-((3R,4S)-4-hydroxytetrahydrofuran-3-ylamino)-9H-purin-9-yl)cyclohexanecarboxamide] was tested. Which IC50 did it give?
Answer: > 1000 nM

Question: With `NC(=O)[C@H]1CC[C@@H](n2c(Nc3c(Cl)cc(F)cc3Cl)nc3cnc(N[C@@H]4COC[C@H]4O)nc32)CC1` [Example 315, (1S,4s)-4-(8-(2,6-dichloro-4-fluorophenylamino)-2-((3R,4S)-4-hydroxytetrahydrofuran-3-ylamino)-9H-purin-9-yl)cyclohexanecarboxamide] as the molecule, how does the IC50 read?
Answer: > 1000 nM

Question: How did the IC50 turn out when `NC(=O)[C@H]1CC[C@@H](n2c(Nc3c(F)cc(Cl)cc3F)nc3cnc(N[C@@H]4COC[C@H]4O)nc32)CC1` [Example 316, (1S,4s)-4-(8-(4-chloro-2,6-difluorophenylamino)-2-((3R,4S)-4-hydroxytetrahydrofuran-3-ylamino)-9H-purin-9-yl)cyclohexanecarboxamide] was run?
Answer: > 1000 nM

Question: `NC(=O)[C@H]1CC[C@@H](n2c(Nc3ccc(Cl)c(F)c3F)nc3cnc(N[C@H]4COC[C@@H]4O)nc32)CC1` [Example 317, (1R,4s)-4-(8-(4-chloro-2,3-difluorophenylamino)-2-((3S,4R)-4-hydroxytetrahydrofuran-3-ylamino)-9H-purin-9-yl)cyclohexanecarboxamide] was tested. Which IC50 did it give?
Answer: 500 to 1000 nM

Question: `NC(=O)[C@H]1CC[C@@H](n2c(Nc3c(F)ccc(Cl)c3F)nc3cnc(N[C@H]4COC[C@@H]4O)nc32)CC1` [Example 318, (1R,4s)-4-(8-(3-chloro-2,6-difluorophenylamino)-2-((3S,4R)-4-hydroxytetrahydrofuran-3-ylamino)-9H-purin-9-yl)cyclohexanecarboxamide] was tested. Which IC50 did it give?
Answer: > 1000 nM

Question: With `NC(=O)[C@H]1CC[C@@H](n2c(Nc3ccc(Cl)cc3Cl)nc3cnc(N[C@H]4COC[C@@H]4O)nc32)CC1` [Example 319, (1R,4s)-4-(8-(2,4-dichlorophenylamino)-2-((3S,4R)-4-hydroxytetrahydrofuran-3-ylamino)-9H-purin-9-yl)cyclohexanecarboxamide] as the molecule, how does the IC50 read?
Answer: > 1000 nM

Question: For `NC(=O)[C@H]1CC[C@@H](n2c(Nc3cc(Cl)ccc3F)nc3cnc(N[C@H]4COC[C@@H]4O)nc32)CC1` [Example 320, (1R,4s)-4-(8-(5-chloro-2-fluorophenylamino)-2-((3S,4R)-4-hydroxytetrahydrofuran-3-ylamino)-9H-purin-9-yl)cyclohexanecarboxamide], which IC50 is on record?
Answer: > 1000 nM

Question: How did the IC50 turn out when `NC(=O)[C@H]1CC[C@@H](n2c(Nc3cc(F)c(Cl)cc3F)nc3cnc(N[C@@H]4COC[C@H]4O)nc32)CC1` [Example 321, (1S,4s)-4-(8-(4-chloro-2,5-difluorophenylamino)-2-((3R,4S)-4-hydroxytetrahydrofuran-3-ylamino)-9H-purin-9-yl)cyclohexanecarboxamide] was run?
Answer: > 1000 nM

Question: How did the IC50 turn out when `NC(=O)[C@H]1CC[C@@H](n2c(Nc3c(F)cc(Cl)cc3F)nc3cnc(N[C@H]4C[C@@H](O)C4)nc32)CC1` [Example 322, (1s,4s)-4-(8-(4-chloro-2,6-difluorophenylamino)-2-((1s,3s)-3-hydroxycyclobutylamino)-9H-purin-9-yl)cyclohexanecarboxamide] was run?
Answer: > 1000 nM

Question: For `NC(=O)[C@H]1CC[C@@H](n2c(Nc3c(Cl)cc(Cl)cc3Cl)nc3cnc(N[C@H]4C[C@@H](O)C4)nc32)CC1` [Example 323, (1s,4s)-4-(2-((1s,3s)-3-hydroxycyclobutylamino)-8-(2,4,6-trichlorophenylamino)-9H-purin-9-yl)cyclohexanecarboxamide], which IC50 is on record?
Answer: > 1000 nM

Question: With `NC(=O)[C@H]1CC[C@@H](n2c(Nc3c(F)cc(Cl)cc3Cl)nc3cnc(N[C@H]4C[C@@H](O)C4)nc32)CC1` [Example 324, (1s,4s)-4-(8-(2,4-dichloro-6-fluorophenylamino)-2-((1s,3s)-3-hydroxycyclobutylamino)-9H-purin-9-yl)cyclohexanecarboxamide] as the molecule, how does the IC50 read?
Answer: > 1000 nM

Question: `NC(=O)[C@H]1CC[C@@H](n2c(Nc3c(F)cccc3Cl)nc3cnc(N[C@H]4CC[C@H](O)C4)nc32)CC1` [Example 325, (1R,4s)-4-(8-(2-chloro-6-fluorophenylamino)-2-((1S,3S)-3-hydroxycyclopentylamino)-9H-purin-9-yl)cyclohexanecarboxamide] was tested. Which IC50 did it give?
Answer: > 1000 nM
